# Measured values as given in patent US8791163B2 (McGill University, priority 2006, dated 2014).
# Several values for one entry are separate records, joined by “and”; a condition that tells them apart may be missing. Identical values can stand only once.
# How the values were obtained:
# [1] = tested on: dorsal raphe 5-HT neurons; experiment: In vivo electrophysiological recording of 5-HT firing activity; set-up: species or system rat
# Source text: Serotonin (5-HT) neurons are implicated in the regulation of mood (for a review see Gobbi G, (2005) Inter. Rev. Neurobiology 65: 249-271). The increase in serotonergic neurotransmission is linked to the action of antidepressant drugs. For example fluoxetine (Prozac) increases the 5-HT availability by blocking its […]; mirtazapine (Remeron) increases 5-HT firing activity via an indirect alpha-2 receptor blockade. Consequently, in order to test if compound 5b increases the 5-HT firing activity, in vivo 5-HT neuron activity was recorded after single (40 or 80 mg/kg, subcutaneous) and repeated injections with compound 5b (40 mg/kg, i.p. once a day, for 4 days). For animals treated with a single injection (acute) the recording was done immediately following the injection. For animals treated with repeated injection (sub-chronic) the recording was done 24 hours after the last injection (FIG. 6).
# Rats (Sprague-Dawley) were anesthetized with chloral hydrate (400 mg/kg i.p.) and placed in a stereotaxic frame (David Kopf Instruments) with the skull positioned horizontally. To maintain a full anesthetic state in which there is no reaction to a tail or paw pinch, chloral hydrate supplements of 100 mg/kg were given as needed. A burr hole was drilled in the midline, 0.9 to 1.2 mm anterior to interaural zero (Paxinos, G. and Watson, C. (1982); The rat brain in Stereotaxic Coordinates; Academy, Sydney). Dorsal raphe was encountered just below the Sylvius aqueduct, 5.0 to 6.5 mm ventral to dura mater. The dorsal raphe 5-HT neurons, in physiological conditions, were identified according to the following criteria: a slow (0.5-2.5 Hz) and regular firing rate; and a long-duration (0.8-1.2 ms) positive action potential (Baraban and Aghajanian (1980) Neuropharmacology 19, 355-363). Neuronal activity was recorded and processed by a computer connected to CED1401 interface-Spike 2 software (Cambridge Electronic Design, Cambridge, UK).
# Sprague Dawley rats = experiment: Novelty-Induced Suppressed Feeding (NSF) Test; assay type: in vivo, rat; conditions: for Latency (sec) to feed: 60 min before the test
# Method: The NSF test is used to assess the anti-anxiety effect of a drug [Bodnoff et al. Psychopharmacology 1988, 95(3), 298-307]. Sprague Dawley rats were used in the NSF test. The testing apparatus comprises a brightly lit open area covered with lab chow pellets. Forty-eight hours prior to behavioral testing, all food was removed from the apparatus. Animals treated with compound 5b (40 or 80 mg/kg) were injected 60 min before the test, whereas animals treated with vehicle (DMSO/saline 7:3) or diazepam were injected 45 min before the test. The drugs were administered subcutaneously and the experiments were conducted after 5:30 PM. The latency to feed, defined as chewing the food as opposed to merely sniffing or playing with a pellet, was then recorded (Table 6). The experiment was terminated for those animals that had not begun eating within a period of 360 seconds, which animals were assigned a latency score of 360 seconds. All analyses were conducted using Sigma Stats and SPSS software. The results are expressed as the mean±SEM per n (number) animals tested (*, p<0.01, ANOVA or t test).
# [2] = target: T1, cloned human MT1 receptors (Homo sapiens, UniProt P48039); experiment: [35S]GTPγS binding assay, NIH3T3 cells expressing human MT1; assay type: biochemical
# T1 construct: expressed in transfected cells
# Method: (§1) Membranes were incubated for 90 min at 37° C. in binding buffer (Tris/HCl 50 mM, pH 7.4). The final membrane concentration was 5-10 μg of protein per tube. […] The pKi values are the mean of at least three independent determinations performed in duplicate. To define the functional activity of the compounds of Formula (I) at the MT1 and MT2 receptor subtypes, [^35S]GTPγS binding assays in NIH3T3 cells expressing human-cloned MT1 or MT2 receptors were performed. The amount of bound [^35S]GTPγS is proportional to the level of analogue-induced G-protein activation and is related to the intrinsic activity of the compound (i.e. a compound of Formula (I)) under study. […] Nonspecific binding was assessed using non-radiolabeled GTPγS (10 μM). […] Basal stimulation is the amount of [^35S]GTPγS specifically bound in the absence of the compounds of Formula (I) and was taken as 100%. […] All of the measurements were performed in triplicate.
# [3] = tested on: Adult Sprague Dawley rats; experiment: Elevated plus maze (EPM); assay type: in vivo, rat; conditions: for Head Dips / Percentage of time in Closed Arms / Percentage of time in Open Arms / Total time duration in the Closed Arms / Total time duration in the Open Arms: injected 60 min before test
# Method: The maze is comprised of two open arms (50×10 cm) and two closed arms (50×10×40 cm) that extend from a common central platform (10×10 cm). The apparatus, made of wood (painted black) was elevated to a height of 80 cm above floor level. The closed arms are located opposite one another. Behavior is recorded over a period of 5 min using a video camera positioned directly above the maze and rated by an observer blind to drug conditions. The major measure of interest is the amount of time spent in the open arms. As an index of general activity and distribution, the total number of entries into both open and closed arms was also recorded. […] In order to increase the sensitivity of this test to anxiolytic activity, tests are carried out under normal room illumination (25 W bulb).
# [4] = target: T2, cloned human MT2 receptors (Homo sapiens, UniProt P49286); experiment: [35S]GTPγS binding assay, NIH3T3 cells expressing human MT2; assay type: biochemical; conditions: maximal net effect relative to MLT
# T2 construct: expressed in transfected cells
# T2 sequence (P49286 1-362): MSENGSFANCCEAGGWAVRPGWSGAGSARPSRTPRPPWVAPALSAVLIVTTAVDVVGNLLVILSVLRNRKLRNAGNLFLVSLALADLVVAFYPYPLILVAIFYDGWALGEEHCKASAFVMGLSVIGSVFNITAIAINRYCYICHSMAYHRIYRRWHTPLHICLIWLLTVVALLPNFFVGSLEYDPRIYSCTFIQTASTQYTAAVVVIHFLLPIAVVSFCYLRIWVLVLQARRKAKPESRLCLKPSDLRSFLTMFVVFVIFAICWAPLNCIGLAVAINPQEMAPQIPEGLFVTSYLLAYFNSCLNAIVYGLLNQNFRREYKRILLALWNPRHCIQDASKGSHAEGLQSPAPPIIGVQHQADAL
# Method: as §1
# [5] = 5b 40, 60 and 80 mg/kg, injected 60 min before the test, vs vehicle
# T1 sequence (P48039 whole entry): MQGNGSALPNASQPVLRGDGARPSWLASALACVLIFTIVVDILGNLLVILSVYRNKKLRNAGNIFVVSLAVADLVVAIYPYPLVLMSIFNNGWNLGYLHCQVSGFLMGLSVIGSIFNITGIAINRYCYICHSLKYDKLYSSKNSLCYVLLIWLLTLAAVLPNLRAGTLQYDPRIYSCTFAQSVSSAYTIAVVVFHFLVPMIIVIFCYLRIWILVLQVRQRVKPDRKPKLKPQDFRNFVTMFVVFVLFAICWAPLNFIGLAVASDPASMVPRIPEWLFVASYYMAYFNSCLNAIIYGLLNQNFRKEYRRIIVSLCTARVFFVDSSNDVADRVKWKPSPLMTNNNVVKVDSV
compound,measurement,setting,value
"COc1cccc(N(CCNC(C)=O)c2ccccc2)c1 [5b, N-{2-[(3-Methoxyphenyl)-phenylamino]ethyl}acetamide]",increase of spontaneous activity of 5-HT neurons,[1]; acute single injection 40 mg/kg subcutaneous,40%
same,5-HT neuron firing rate,[1]; acute single injection 40 mg/kg subcutaneous (control 0.66 Hz),0.93 Hz
same,increase of spontaneous activity of 5-HT neurons,[1]; acute single injection 80 mg/kg subcutaneous,106%
same,5-HT neuron firing rate,[1]; acute single injection 80 mg/kg subcutaneous (control 0.66 Hz),1.36 Hz
same,increase of spontaneous activity of 5-HT neurons,"[1]; sub-chronic 40 mg/kg i.p. once a day for 4 days, recorded 24 h after last injection",133%
same,5-HT neuron mean firing rate,"[1]; sub-chronic 40 mg/kg once a day for 4 days, recorded 24 h after last injection (control 1.2 Hz)",2.8 Hz and 2.80 Hz
same,Latency (sec) to feed,Sprague Dawley rats; 5b 40 mg/kg s.c.,106.75 ± 10.13 (P ≦ 0.001)* sec
same,Latency (sec) to feed,Sprague Dawley rats; 5b 80 mg/kg s.c.,115.28 ± 13.89 (P ≦ 0.001)* sec
same,latency to feed (FIG. 5),"Sprague Dawley rats; 5b 40 and 80 mg/kg, injected 60 min before the test, vs vehicle",decreased latency to feed
same,functional behaviour (maximal stimulation of basal [35S]GTPγS binding lower than melatonin),[2]; MT1 and MT2,partial agonist
same,MT1 IAr ± SEM (relative intrinsic activity),[2]; maximal net effect relative to MLT,0.8 and 0.79 ± 0.03
same,Head Dips,[3]; 5b 40 mg/kg,6.30 ± 0.98
same,Percentage of time in Closed Arms,[3]; 5b 40 mg/kg,82.30 ± 2.63%
same,Percentage of time in Open Arms,[3]; 5b 40 mg/kg,17.7 ± 2.6%
same,Total time duration in the Closed Arms,[3]; 5b 40 mg/kg,219.4 ± 9.38 sec/closed arm
same,Total time duration in the Open Arms,[3]; 5b 40 mg/kg,47.4 ± 6.86 sec/open arm
same,Head Dips,[3]; 5b 60 mg/kg,8.27 ± 1.42
same,Percentage of time in Closed Arms,[3]; 5b 60 mg/kg,74.47 ± 4.06 (P = 0.02) %
same,Percentage of time in Open Arms,[3]; 5b 60 mg/kg,25.5 ± 4.1 (P = 0.02) %
same,Total time duration in the Closed Arms,[3]; 5b 60 mg/kg,199.83 ± 11.33 (P = 0.01) sec/closed arm
same,Total time duration in the Open Arms,[3]; 5b 60 mg/kg,68.93 ± 11.02 (P = 0.02) sec/open arm
same,Head Dips,[3]; 5b 80 mg/kg,9.91 ± 1.50 (P = 0.02)
same,Percentage of time in Closed Arms,[3]; 5b 80 mg/kg,68.18 ± 4.84 (P = 0.007) %
same,Percentage of time in Open Arms,[3]; 5b 80 mg/kg,31.8 ± 4.8 (P = 0.003) %
same,Total time duration in the Closed Arms,[3]; 5b 80 mg/kg,181.68 ± 14.32 (P = 0.006) sec/closed arm
same,Total time duration in the Open Arms,[3]; 5b 80 mg/kg,79.16 ± 12.0 (P = 0.001) sec/open arm
same,number of head dips (FIG. 4),"[3]; 5b 40, 60 and 80 mg/kg, injected 60 min before the test",increase in the number of head dips
same,"time in the open arms, percentage of time (FIG. 3)",[3]; [5],spent more time in the open arms
same,"time in the open arms, total time expressed in seconds (FIG. 2)",[3]; [5],spent more time in the open arms
same,MT2 IAr ± SEM (relative intrinsic activity),[4],0.6 and 0.61 ± 0.04
